Experimental data published in patent US12215140B2, “Method of stabilizing protein contained in specimen and solution for stabilizing protein contained in specimen” (EIKEN KAGAKU KABUSHIKI KAISHA, priority 2018, dated 2025).

Target: hemoglobin (Homo sapiens, UniProt P68871+P69905)
Experiment: Stability of hemoglobin in samples preserved at 37° C. in preservation solution containing no haptoglobin, Hb measured by latex agglutination method (Examples 8, 9 and Table 10)
Details: arylboronic acid 0.5 mmol/L
Experimental: Preservation solutions were prepared with the addition of 40 mmol/L HEPES (pH 6.8), 0.1% BSA, 0.1% NaN3, and 0 to 2.5 mmol/L phenylboronic acid. […] Samples obtained by adding hemoglobin-added fecal specimens to the preservation solutions so that the fecal concentration would be 0.5% were preserved at 37° C. for 0, 16, 38, and 62 hours. The fecal specimens were added with hemoglobin having an amount such that the hemoglobin concentration in the samples would be about 300 μg/L. Instead of the fecal specimens to which hemoglobin was added, samples containing no fecal specimens, in which hemoglobin was added to the preservation solutions so that the hemoglobin concentration in the samples would be 300 μg/L, were similarly preserved. The hemoglobin (Hb) concentrations (μg/L) in the preserved samples were measured by the latex agglutination method using the same measurement reagent and measurement device as in Example 1.
The concentration of phenylboronic acid in the preservation solutions of Example 8 was fixed to 0.5 mmol/L, preservation solutions to which sorbitol or sucrose was further added at 10 to 250 mmol/L or trehalose, glucose, fructose, or mannitol was further added at 50 to 100 mmol/L were prepared, and testing was conducted in the same manner as in Example 8. In addition, preservation solutions to which the phenylboronic acid was added but no sugar was added were prepared, preservation solutions to which the phenylboronic acid and sugar were not added were prepared for the comparative examples, and testing was conducted in the same manner.
For comparative examples, preservation solutions to which no arylboronic acid was added were prepared, and testing was conducted in the same manner.

[1] = Feces 1, 0 h at 37° C., no sugar
[2] = Feces 1, 16 h at 37° C., no sugar
[3] = Feces 1, 38 h at 37° C., no sugar
[4] = Feces 1, 62 h at 37° C., no sugar
[5] = Feces 2, 0 h at 37° C., no sugar
[6] = Feces 2, 16 h at 37° C., no sugar
[7] = Feces 2, 38 h at 37° C., no sugar
[8] = Feces 2, 62 h at 37° C., no sugar
[9] = Feces 3, 0 h at 37° C., no sugar
[10] = Feces 3, 16 h at 37° C., no sugar
[11] = Feces 3, 38 h at 37° C., no sugar
[12] = Feces 3, 62 h at 37° C., no sugar
[13] = No feces, 0 h at 37° C., no sugar
[14] = No feces, 16 h at 37° C., no sugar
[15] = No feces, 38 h at 37° C., no sugar
[16] = No feces, 62 h at 37° C., no sugar

hemoglobin, sequence (P69905 2-142): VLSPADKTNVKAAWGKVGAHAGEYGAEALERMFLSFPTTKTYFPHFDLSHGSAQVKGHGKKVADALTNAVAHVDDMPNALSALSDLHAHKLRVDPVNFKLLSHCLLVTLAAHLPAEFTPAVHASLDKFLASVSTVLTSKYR
hemoglobin, sequence (P68871 2-147): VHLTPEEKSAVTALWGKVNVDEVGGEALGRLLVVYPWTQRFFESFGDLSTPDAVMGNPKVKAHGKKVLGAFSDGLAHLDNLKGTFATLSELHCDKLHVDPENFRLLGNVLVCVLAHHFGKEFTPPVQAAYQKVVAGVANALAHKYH

Compound: O=C(O)c1cccc(B(O)O)c1 [3C-PBA, 3-carboxyphenylboronic acid]
- Hb concentration [1]: 296 µg/L
- Recovery ratio with respect to Hb after 0 days [1]: 100%
- Hb concentration [2]: 163 µg/L
- Recovery ratio with respect to Hb after 0 days [2]: 55%
- Hb concentration [3]: 68 µg/L
- Recovery ratio with respect to Hb after 0 days [3]: 23%
- Hb concentration [4]: 20 µg/L
- Recovery ratio with respect to Hb after 0 days [4]: 7%
- Hb concentration (Feces 1, 0 h at 37° C.): 296 µg/L
- Recovery ratio with respect to Hb after 0 days (Feces 1, 0 h at 37° C.): 100%
- Hb concentration (Feces 1, 16 h at 37° C.): 163 µg/L
- Recovery ratio with respect to Hb after 0 days (Feces 1, 16 h at 37° C.): 55%
- Hb concentration (Feces 1, 38 h at 37° C.): 68 µg/L
- Recovery ratio with respect to Hb after 0 days (Feces 1, 38 h at 37° C.): 23%
- Hb concentration (Feces 1, 62 h at 37° C.): 20 µg/L
- Recovery ratio with respect to Hb after 0 days (Feces 1, 62 h at 37° C.): 7%
- Hb concentration [5]: 288 µg/L
- Recovery ratio with respect to Hb after 0 days [5]: 100%
- Hb concentration [6]: 90 µg/L
- Recovery ratio with respect to Hb after 0 days [6]: 31%
- Hb concentration [7]: 8 µg/L
- Recovery ratio with respect to Hb after 0 days [7]: 3%
- Hb concentration [8]: 0 µg/L
- Recovery ratio with respect to Hb after 0 days [8]: 0%
- Hb concentration (Feces 2, 0 h at 37° C.): 288 µg/L
- Recovery ratio with respect to Hb after 0 days (Feces 2, 0 h at 37° C.): 100%
- Hb concentration (Feces 2, 16 h at 37° C.): 90 µg/L
- Recovery ratio with respect to Hb after 0 days (Feces 2, 16 h at 37° C.): 31%
- Hb concentration (Feces 2, 38 h at 37° C.): 8 µg/L
- Recovery ratio with respect to Hb after 0 days (Feces 2, 38 h at 37° C.): 3%
- Hb concentration (Feces 2, 62 h at 37° C.): 0 µg/L
- Recovery ratio with respect to Hb after 0 days (Feces 2, 62 h at 37° C.): 0%
- Hb concentration [9]: 281 µg/L
- Recovery ratio with respect to Hb after 0 days [9]: 100%
- Hb concentration [10]: 95 µg/L
- Recovery ratio with respect to Hb after 0 days [10]: 34%
- Hb concentration [11]: 5 µg/L
- Recovery ratio with respect to Hb after 0 days [11]: 2%
- Hb concentration [12]: 0 µg/L
- Recovery ratio with respect to Hb after 0 days [12]: 0%
- Hb concentration (Feces 3, 0 h at 37° C.): 281 µg/L
- Recovery ratio with respect to Hb after 0 days (Feces 3, 0 h at 37° C.): 100%
- Hb concentration (Feces 3, 16 h at 37° C.): 95 µg/L
- Recovery ratio with respect to Hb after 0 days (Feces 3, 16 h at 37° C.): 34%
- Hb concentration (Feces 3, 38 h at 37° C.): 5 µg/L
- Recovery ratio with respect to Hb after 0 days (Feces 3, 38 h at 37° C.): 2%
- Hb concentration (Feces 3, 62 h at 37° C.): 0 µg/L
- Recovery ratio with respect to Hb after 0 days (Feces 3, 62 h at 37° C.): 0%
- Hb concentration [13]: 299 µg/L
- Recovery ratio with respect to Hb after 0 days [13]: 100%
- Hb concentration [14]: 279 µg/L
- Recovery ratio with respect to Hb after 0 days [14]: 94%
- Hb concentration [15]: 264 µg/L
- Recovery ratio with respect to Hb after 0 days [15]: 88%
- Hb concentration [16]: 266 µg/L
- Recovery ratio with respect to Hb after 0 days [16]: 89%
- Hb concentration (No feces, 0 h at 37° C.): 299 µg/L
- Recovery ratio with respect to Hb after 0 days (No feces, 0 h at 37° C.): 100%
- Hb concentration (No feces, 16 h at 37° C.): 279 µg/L
- Recovery ratio with respect to Hb after 0 days (No feces, 16 h at 37° C.): 94%
- Hb concentration (No feces, 38 h at 37° C.): 264 µg/L
- Recovery ratio with respect to Hb after 0 days (No feces, 38 h at 37° C.): 88%
- Hb concentration (No feces, 62 h at 37° C.): 266 µg/L
- Recovery ratio with respect to Hb after 0 days (No feces, 62 h at 37° C.): 89%

Compound: OB(O)c1cccc(O)c1 [3H-PBA, 3-hydroxyphenylboronic acid]
- Hb concentration [1]: 298 µg/L
- Recovery ratio with respect to Hb after 0 days [1]: 100%
- Hb concentration [2]: 171 µg/L
- Recovery ratio with respect to Hb after 0 days [2]: 57%
- Hb concentration [3]: 79 µg/L
- Recovery ratio with respect to Hb after 0 days [3]: 26%
- Hb concentration [4]: 25 µg/L
- Recovery ratio with respect to Hb after 0 days [4]: 8%
- Hb concentration (Feces 1, 0 h at 37° C.): 298 µg/L
- Recovery ratio with respect to Hb after 0 days (Feces 1, 0 h at 37° C.): 100%
- Hb concentration (Feces 1, 16 h at 37° C.): 171 µg/L
- Recovery ratio with respect to Hb after 0 days (Feces 1, 16 h at 37° C.): 57%
- Hb concentration (Feces 1, 38 h at 37° C.): 79 µg/L
- Recovery ratio with respect to Hb after 0 days (Feces 1, 38 h at 37° C.): 26%
- Hb concentration (Feces 1, 62 h at 37° C.): 25 µg/L
- Recovery ratio with respect to Hb after 0 days (Feces 1, 62 h at 37° C.): 8%
- Hb concentration [5]: 295 µg/L
- Recovery ratio with respect to Hb after 0 days [5]: 100%
- Hb concentration [6]: 95 µg/L
- Recovery ratio with respect to Hb after 0 days [6]: 32%
- Hb concentration [7]: 11 µg/L
- Recovery ratio with respect to Hb after 0 days [7]: 4%
- Hb concentration [8]: 0 µg/L
- Recovery ratio with respect to Hb after 0 days [8]: 0%
- Hb concentration (Feces 2, 0 h at 37° C.): 295 µg/L
- Recovery ratio with respect to Hb after 0 days (Feces 2, 0 h at 37° C.): 100%
- Hb concentration (Feces 2, 16 h at 37° C.): 95 µg/L
- Recovery ratio with respect to Hb after 0 days (Feces 2, 16 h at 37° C.): 32%
- Hb concentration (Feces 2, 38 h at 37° C.): 11 µg/L
- Recovery ratio with respect to Hb after 0 days (Feces 2, 38 h at 37° C.): 4%
- Hb concentration (Feces 2, 62 h at 37° C.): 0 µg/L
- Recovery ratio with respect to Hb after 0 days (Feces 2, 62 h at 37° C.): 0%
- Hb concentration [9]: 295 µg/L
- Recovery ratio with respect to Hb after 0 days [9]: 100%
- Hb concentration [10]: 106 µg/L
- Recovery ratio with respect to Hb after 0 days [10]: 36%
- Hb concentration [11]: 9 µg/L
- Recovery ratio with respect to Hb after 0 days [11]: 3%
- Hb concentration [12]: 0 µg/L
- Recovery ratio with respect to Hb after 0 days [12]: 0%
- Hb concentration (Feces 3, 0 h at 37° C.): 295 µg/L
- Recovery ratio with respect to Hb after 0 days (Feces 3, 0 h at 37° C.): 100%
- Hb concentration (Feces 3, 16 h at 37° C.): 106 µg/L
- Recovery ratio with respect to Hb after 0 days (Feces 3, 16 h at 37° C.): 36%
- Hb concentration (Feces 3, 38 h at 37° C.): 9 µg/L
- Recovery ratio with respect to Hb after 0 days (Feces 3, 38 h at 37° C.): 3%
- Hb concentration (Feces 3, 62 h at 37° C.): 0 µg/L
- Recovery ratio with respect to Hb after 0 days (Feces 3, 62 h at 37° C.): 0%
- Hb concentration [13]: 306 µg/L
- Recovery ratio with respect to Hb after 0 days [13]: 100%
- Hb concentration [14]: 282 µg/L
- Recovery ratio with respect to Hb after 0 days [14]: 92%
- Hb concentration [15]: 263 µg/L
- Recovery ratio with respect to Hb after 0 days [15]: 86%
- Hb concentration [16]: 264 µg/L
- Recovery ratio with respect to Hb after 0 days [16]: 86%
- Hb concentration (No feces, 0 h at 37° C.): 306 µg/L
- Recovery ratio with respect to Hb after 0 days (No feces, 0 h at 37° C.): 100%
- Hb concentration (No feces, 16 h at 37° C.): 282 µg/L
- Recovery ratio with respect to Hb after 0 days (No feces, 16 h at 37° C.): 92%
- Hb concentration (No feces, 38 h at 37° C.): 263 µg/L
- Recovery ratio with respect to Hb after 0 days (No feces, 38 h at 37° C.): 86%
- Hb concentration (No feces, 62 h at 37° C.): 264 µg/L
- Recovery ratio with respect to Hb after 0 days (No feces, 62 h at 37° C.): 86%
